Experimental data taken from patent US20260078103A1, “ISOQUINOLONES AS PI3K INHIBITORS” (OnKure, Inc., priority 2022, published 2026).
Where two headings read alike, the source gives them in different places.

What was measured:
Type in all cases: cell-based
[1] = system: SKBR3 cells express WT PI3Ka; assay: In vitro cell proliferation, SKBR3 cells (CellTiter-Glo); settings: inhibition of proliferation
Outline: (§1)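 Proliferation was read by CellTiter-Glo luminescence after 72 h of exposure to 10-point compound dilutions at 37 °C and 5% CO2. T47D (RPMI, 10% FBS, insulin 0.2 units/mL) and SKBR3 (McCoys 5a, 10% FBS) cells were seeded at 1,500 cells/well. EC50 was fitted from inhibition relative to DMSO and 10 uM Alpelisib.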

[2] = system: T47D cells expressing mutant PI3Ka (H1047R); assay: In vitro cell proliferation, T47D cells (CellTiter-Glo); settings: inhibition of proliferation, read-out: Avg T-47D EC50
Outline: as §1

[3] = system: phosphorylation of AKT (pAKT) in T47D cells expressing mutant PI3Ka (H1047R); assay: In vitro cell pAKT (Ser473) HTRF, T47D cells; settings: cellular pAKT, T47D cells, mutant PI3Ka (H1047R), 6 hours, read-out: Avg T-47D IC50
Outline: (§2)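 T47D cells (RPMI, 10% FBS, 0.2 units/mL insulin) or SKBR3 cells (McCoy's 5a, 10% FBS) were seeded onto 10-point compound dilutions and incubated 6 h at 37 °C. After lysis, pAKT was detected overnight by HTRF (Eu cryptate/d2). IC50 was fitted from % inhibition relative to 0.1% DMSO and 10 uM alpelisib controls.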

[4] = system: phosphorylation of AKT (pAKT) in SKBR3 cells express WT PI3Ka; assay: In vitro cell pAKT (Ser473) HTRF, SKBR3 cells; settings: cellular pAKT
Outline: as §2

Compound | EC50 ([1]; 72 hours) [µM] | EC50 ([2]; 72 hours) [nM] | IC50 [3] [nM] | IC50 ([4]; 6 hours) [µM] | EC50 ([1]; Homo sapiens, SK-BR-3, 72 h) [µM] | IC50 ([4]; Homo sapiens, SK-BR-3, 6 h) [µM] | IC50 ([3]; Homo sapiens, T47D, 6 h) [nM] | EC50 ([2]; Homo sapiens, T47D, 72 h) [nM]
Cc1cc(C(C)Nc2ccccc2C(=O)O)c2cc(N3CCN(C(=O)OC(C)C)CC3)n(C)c(=O)c2c1 (single isomer, unassigned) [Example 149] | 2 to 15 | 1 to 500 | 1 to 500 | 2 to 15 | – | – | – | –
Cc1cc(C(C)Nc2ccccc2C(=O)O)c2cc(N3CCS(=O)(=O)CC3)n(C)c(=O)c2c1 (single isomer, unassigned) [Example 150] | – | 2000 to 15000 | 2000 to 15000 | – | > 15 | > 15 | – | –
Cc1cc(C(C)Nc2ccccc2C(=O)O)c2cc(N3CCS(=O)(=O)CC3)n(C)c(=O)c2c1 (single isomer, unassigned) [Example 151] | > 15 | > 15000 | > 15000 | > 15 | – | – | – | –
COC1(C)CCN(c2cc3c(C(C)Nc4ccccc4C(=O)O)cc(C)cc3c(=O)n2C)CC1 (single isomer, unassigned) [Example 153] | 2 to 15 | 1 to 500 | 1 to 500 | 2 to 15 | – | – | – | –
COC1(C)CCN(c2cc3c(C(C)Nc4ccccc4C(=O)O)cc(C)cc3c(=O)n2C)CC1 (single isomer, unassigned) [Example 154] | > 15 | 2000 to 15000 | > 15000 | > 15 | – | – | – | –
COc1ccc(-c2cc3c(C(C)Nc4ccccc4C(=O)O)cc(C)cc3c(=O)n2C)cn1 (single isomer, unassigned) [Example 155] | – | 1 to 500 | 1 to 500 | – | > 15 | > 15 | – | –
COc1ccc(-c2cc3c(C(C)Nc4ccccc4C(=O)O)cc(C)cc3c(=O)n2C)cn1 (single isomer, unassigned) [Example 156] | > 15 | 2000 to 15000 | 2000 to 15000 | > 15 | – | – | – | –
Cc1cc(C(C)Nc2ccccc2C(=O)O)c2cc(N3CCC4(CCOCC4)CC3)n(C)c(=O)c2c1 (single isomer, unassigned) [Example 166] | > 15 | 2000 to 15000 | 2000 to 15000 | > 15 | – | – | – | –
Cc1cc(C(C)Nc2ccccc2C(=O)O)c2cc(N3CCC4(CCOCC4)CC3)n(C)c(=O)c2c1 (single isomer, unassigned) [Example 167] | 2 to 15 | 1 to 500 | 1 to 500 | 2 to 15 | – | – | – | –
Cc1cc(C(C)Nc2ccccc2C(=O)O)c2cc(N3CCC4(CCCCO4)CC3)n(C)c(=O)c2c1 (single isomer, unassigned) [Example 168] | > 15 | 1 to 500 | 1 to 500 | 2 to 15 | – | – | – | –
Cc1cc(C(C)Nc2ccccc2C(=O)O)c2cc(N3CCC4(CCCCO4)CC3)n(C)c(=O)c2c1 (single isomer, unassigned) [Example 169] | > 15 | > 15000 | 2000 to 15000 | > 15 | – | – | – | –
Cc1cc(C(C)Nc2ccccc2C(=O)O)c2cc(N3Cc4ccc(F)c(F)c4C3)n(C)c(=O)c2c1 (single isomer, unassigned) [Example 177] | – | 2000 to 15000 | > 15000 | – | > 15 | > 15 | – | –
Cc1cc(C(C)Nc2ccccc2C(=O)O)c2cc(N3Cc4ccc(F)c(F)c4C3)n(C)c(=O)c2c1 (single isomer, unassigned) [Example 178] | > 15 | 500 to 2000 | 1 to 500 | > 15 | – | – | – | –
Cc1cc(C(C)Nc2ccccc2C(=O)O)c2cc(N3CC(C)(O)C3)n(C)c(=O)c2c1 (single isomer, unassigned) [Example 181] | – | > 15000 | > 15000 | – | > 15 | > 15 | – | –
Cc1cc(C(C)Nc2ccccc2C(=O)O)c2cc(N3CC(C)(O)C3)n(C)c(=O)c2c1 (single isomer, unassigned) [Example 182] | > 15 | 2000 to 15000 | 2000 to 15000 | > 15 | – | – | – | –
COC1(C)CN(c2cc3c(C(C)Nc4ccccc4C(=O)O)cc(C)cc3c(=O)n2C)C1 (single isomer, unassigned) [Example 183] | – | > 15000 | > 15000 | – | > 15 | > 15 | – | –
Cc1cc([C@@H](C)Nc2ccccc2C(=O)O)c2cc(N3CC4CC3CN4CC(F)(F)F)n(C)c(=O)c2c1 (single isomer, unassigned) [Example 211] | – | 500 to 2000 | – | – | > 15 | > 15 | 1 to 500 | –
COC1(C)CN(c2cc3c(C(C)Nc4ccccc4C(=O)O)cc(C)cc3c(=O)n2C)C1 (single isomer, unassigned) [Example 213] | > 15 | 500 to 2000 | 1 to 500 | > 15 | – | – | – | –
Cc1cc([C@@H](C)Nc2ccccc2C(=O)O)c2cc(N3CC4CC3CN4CC(F)(F)F)n(C)c(=O)c2c1 (single isomer, unassigned) [Example 224] | > 15 | 1 to 500 | 1 to 500 | > 15 | – | – | – | –
CCN1CCN(c2cc3c([C@@H](C)Nc4ccccc4C(=O)O)cc(C)cc3c(=O)n2C)CC1C(F)(F)F (single isomer, unassigned) [Example 266] | > 15 | – | – | – | – | > 15 | 1 to 500 | 1 to 500
CCN1CCN(c2cc3c([C@@H](C)Nc4ccccc4C(=O)O)cc(C)cc3c(=O)n2C)CC1C(F)(F)F (single isomer, unassigned) [Example 267] | 2 to 15 | 1 to 500 | 1 to 500 | > 15 | – | – | – | –
Cc1cc([C@@H](C)Nc2ccccc2C(=O)O)c2cc(N3CCN(C(C)C(F)(F)F)CC3)n(C)c(=O)c2c1 (single isomer, unassigned) [Example 278] | – | – | – | – | > 15 | > 15 | 1 to 500 | 1 to 500
Cc1cc([C@@H](C)Nc2ccccc2C(=O)O)c2cc(N3CCN(C(C)C(F)(F)F)CC3)n(C)c(=O)c2c1 (single isomer, unassigned) [Example 279] | > 15 | 1 to 500 | 1 to 500 | > 15 | – | – | – | –
Cc1cc([C@@H](C)Nc2ccccc2C(=O)O)c2cc(N3CCN(C)C(C(F)(F)F)C3)n(C)c(=O)c2c1 (single isomer, unassigned) [Example 301] | – | – | – | – | > 15 | > 15 | 1 to 500 | 1 to 500
Cc1cc([C@@H](C)Nc2ccccc2C(=O)O)c2cc(N3CCN(C)C(C(F)(F)F)C3)n(C)c(=O)c2c1 (single isomer, unassigned) [Example 302] | > 15 | 1 to 500 | 1 to 500 | > 15 | – | – | – | –
COC[C@@H]1CC1c1cc2c([C@@H](C)Nc3ccccc3C(=O)O)cc(C)cc2c(=O)n1C (single isomer, unassigned) [Example 308] | 2 to 15 | – | – | 2 to 15 | – | – | 1 to 500 | 1 to 500
Cc1cc([C@@H](C)Nc2ccccc2C(=O)O)c2cc(C3C[C@H]3C3CC3)n(C)c(=O)c2c1 (single isomer, unassigned) [Example 309] | – | – | – | 2 to 15 | > 15 | – | 1 to 500 | 1 to 500
Cc1cc([C@@H](C)Nc2ccccc2C(=O)O)c2cc(C3C[C@H]3C)n(C)c(=O)c2c1 (single isomer, unassigned) [Example 310] | 2 to 15 | – | – | – | – | > 15 | 1 to 500 | 1 to 500
Cc1cc([C@@H](C)Nc2ccccc2C(=O)O)c2cc(C3C[C@H]3C(C)C)n(C)c(=O)c2c1 (single isomer, unassigned) [Example 311] | > 15 | – | – | – | – | > 15 | 1 to 500 | 1 to 500
